Test results taken from patent US6080772A, “Thiazole compounds and methods of modulating signal transduction” (Sugen, Inc., priority 1997, dated 2000).
pEC50: −log10 of the molar value. Like-named read-outs stand apart in the source and are kept apart here.

How the values were obtained:
[1] = test system: primary adipocytes; test: Primary adipocyte glucose uptake assay (14C glucose); conditions: test compound 50 mM without insulin, compared to samples containing only insulin (final concentration=100 μm)
[2] = test system: insulin receptor (IR); test: Phosphotyrosine enzyme linked immunosorbent assay: pTyr on insulin receptor in NIH3T3 cells over-expressing human IR (H25 cells); conditions: for pEC50: read-out: ACTIVITY EC50; for ACTIVITY (compared to control) / CONC.: Table I; for CONC.: concentration of the compound which produces the percentage increase in phosphotyrosine over the vanadate control, 90 min incubation, no insulin

Compound | response in the primary adipocyte glucose uptake assay compared with the insulin control [1] | pEC50 ([2]; Table III, […]) | further results
2-[(5-nitrothiazol-2-yl)mercapto]-3-cyano-5-acetoxy-6-dimethoxymethyl-pyridine [Compound 97] | did not give a response greater than or equal to the insulin control |  | level of pTyr on insulin receptor over time (FIG. 1) ([2]; kinetic experiments, range of concentrations, period of 90 minutes): progressively raised the level of pTyr on insulin receptor; pEC50 [2]: 4.47
O=[N+]([O-])c1cnc(Sc2n[nH]c(-c3ccccc3)n2)s1 [Compound 1, 3-[(5-nitrothiazol-2-yl)mercapto]-5-phenyl-1,2,4-triazole] | did not give a response greater than or equal to the insulin control |  | ACTIVITY (compared to control) ([2]; […]): 30%; CONC. [2]: 53 µM; pEC50 ([2]; Table II, […], no lot stated): 4.77
CC(C)(C)c1nc(Sc2ncc([N+](=O)[O-])s2)n[nH]1 [Compound 2, 2-[(5-nitro-thiazol-2-yl)mercapto]-5-t-butyl-1,2,4-triazole] | did not give a response greater than or equal to the insulin control |  | CONC. [2]: 4.1 µM; pEC50 ([2]; Table II, […], no lot stated): 4.70 to 4.80
O=[N+]([O-])c1cnc(Sc2n[nH]c(-c3cccs3)n2)s1 [Compound 3, 3-[(5-nitrothiazol-2-yl)mercapto]-5-(thien-2-yl)-1,2,4-triazole] | did not give a response greater than or equal to the insulin control |  | ACTIVITY (compared to control) ([2]; […]): 50%; CONC. [2]: 77 µM; pEC50 ([2]; Table II, […], no lot stated): 4.49 to 4.66
O=[N+]([O-])c1cnc(Sc2nnc(SCc3cccc(C(F)(F)F)c3)s2)s1 [Compound 63, 2-[(5-Nitrothiazol-2-yl)mercapto]-5-[3-(trifluoromethyl)benzylmercapto]-1,3,4-thiadiazole] |  | 4.12 | 
O=C(Sc1nnc(Sc2ncc([N+](=O)[O-])s2)s1)c1ccccc1 [Compound 65, 2-Benzoylmercapto-5-[(5-nitrothiazol-2-yl)mercapto]-1,3,4-thiadiazole] |  | < 4.60 | 
O=[N+]([O-])c1cnc(Sc2nccc(-c3ccc(-n4cnc(Cl)c4Cl)cc3)n2)s1 [Compound 67, 4-[4-(4,5-Dichloroimidazol-1-yl)phenyl]-2-[(5-nitrothiazol-2-yl)mercapto]pyrimidine] |  | 5.52 | 
O=C1CCCc2nc(Sc3ncc([N+](=O)[O-])s3)ncc21 [Compound 68, 2-[(5-Nitrothiazol-2-yl)mercapto]cyclohexylpyrimid-5-one] |  | < 4.00 | 
Cc1ccc(Nc2nnc(Sc3ncc([N+](=O)[O-])s3)s2)cc1 [Compound 69, 2-(4-Methylphenylamino)-5-[(5-nitrothiazol-2-yl)mercapto]-1,3,4-thiadiazole] |  | < 4.00 | 
Cc1cccc(C)c1NC1=CN=C(Sc2ncc([N+](=O)[O-])s2)SN1 [Compound 70, 3-(2,6-dimethylphenylamino)-6-[(5-nitrothiazol-2-yl)mercapto]-1,2,5-thiadiazine] |  | < 4.00 | 
Cc1ccc(Nc2nnc(Sc3ncc([N+](=O)[O-])s3)s2)c(C)c1 [Compound 71, 2-(2,4-Dimethylphenylamino)-5-[(5-nitrothiazol-2-yl)mercapto]-1,3,4-thiadiazole] |  | 4.62 | 
Cc1cc(C)c(Nc2nnc(Sc3ncc([N+](=O)[O-])s3)s2)c(C)c1 [Compound 72, 2-[(5-Nitrothiazol-2-yl)mercapto]-5-(2,4,6-trimethylphenylamino)-1,3,4-thiadiazole] |  | 4.70 | 
O=[N+]([O-])c1cnc(Sc2nnc(Nc3ccccc3)s2)s1 [Compound 73, 2-[(5-Nitrothiazol-2-yl)mercapto]-5-phenylamino-1,3,4-thiadiazole] |  | 5.00 | 
Cc1cc(C)c(Nc2nnc(Sc3ncc([N+](=O)[O-])s3)s2)cc1C [Compound 74, 2-[(5-Nitrothiazol-2-yl)mercapto]-5(2,4,5-trimethylphenylamino)-1,3,4-thiadiazole] |  | < 4.00 | 
O=[N+]([O-])c1cnc(Sc2nnc(NC3CCCCC3)s2)s1 [Compound 75] |  | < 4.00 | increase in PTYR ([2]; Table III, 100, 50 and 25 μM): 47%
COc1ccccc1Nc1nnc(Sc2ncc([N+](=O)[O-])s2)s1 [Compound 76, 2-(2-Methoxyphenylamino)-5-[(5-nitrothiazol-2-yl)mercapto]-1,3,4-thiadiazol] |  | 4.20 | 
Cc1ccc(Cl)cc1Nc1nnc(Sc2ncc([N+](=O)[O-])s2)s1 [Compound 77, 2-(5-Chloro-2-methylphenylamino)-5-[(5-nitrothiazol-2-yl)mercapto]-1,3,4-thiadiazole] |  | 5.30 | 
O=[N+]([O-])c1ccc(-c2nnc(Sc3ncc([N+](=O)[O-])s3)[nH]2)o1 [Compound 78, 2-(2-Nitrofuran-5-yl)-5-[(5-nitrothiazol-2-yl)mercapto]-1,2,4-triazole] |  |  | pEC50 [2]: 4.44
O=[N+]([O-])c1cnc(Sc2nnnn2Cc2ccccc2)s1 [Compound 80, 1-Benzyl-5-[(5-nitrothiazol-2-yl)mercapto]tetrazole] |  | 5.11 | 
O=[N+]([O-])c1cnc(Sc2nnc(Nc3ccccc3Cl)s2)s1 [Compound 81, 2-(2-Chlorophenylamino)-5-[(5-nitrothiazol-2-yl)mercapto]-1,3,4-thiadiazole] |  | 4.47 | 
O=[N+]([O-])c1cnc(Sc2ncc[nH]2)s1 [Compound 87, 2-[(5-Nitrothiazol-2-yl)mercapto]imidazole] | did not give a response greater than or equal to the insulin control |  | 
O=[N+]([O-])c1cnc(Sc2nnnn2-c2cccc(O)c2)s1 [Compound 88, 1-(3-Hydroxyphenyl)-5-[(5-nitrothiazol-2-yl)mercapto]tetrazole] | did not give a response greater than or equal to the insulin control |  | 
CCCCCC(=O)Nc1ccc(-n2nnnc2Sc2ncc([N+](=O)[O-])s2)cc1 [Compound 89, 1-[4-(n-Hexanoylamino)phenyl]-5-[(5-nitrothiazol-2-yl)mercapto]tetrazole] | did not give a response greater than or equal to the insulin control |  | 
O=[N+]([O-])c1cnc(Sc2nc3cc4c(cc3[nH]2)OCCO4)s1 [Compound 90, 7-[(5-Nitrothiazol-2-yl)mercapto]-benzimidazo[5,6-b]1,4-dioxane] | did not give a response greater than or equal to the insulin control |  | 
O=[N+]([O-])c1cnc(Sc2nnnn2-c2ccccc2)s1 [Compound 91, 5-[(5-Nitrothiazol-2-yl)mercapto]-1-phenyltetrazole] | did not give a response greater than or equal to the insulin control |  | 
C#CCSc1nnc(Sc2ncc([N+](=O)[O-])s2)s1 [Compound 92, 2-[(5-Nitrothiazol-2-yl)mercapto]-5-propargylmercapto-1,3,4-thiadiazole] | did not give a response greater than or equal to the insulin control |  | 
CC(C)n1c(Sc2ncc([N+](=O)[O-])s2)nc2cc(Cl)ccc21 [Compound 96(a), 5-Chloro-1-isopropyl-2-[(5-nitrothiazol-2-l)mercapto]benzimidazole] | did not give a response greater than or equal to the insulin control |  | 
Cc1ccsc1/C=C/c1ccnc(Sc2ncc([N+](=O)[O-])s2)n1 [Compound 98] | did not give a response greater than or equal to the insulin control |  | 
